Source: PubChem BioAssay AID1845200 (Molecular Pharmacology Branch, DTP, NCI, 2023)

Test system: ASPS-1 complex tumor spheroids, viability
Assay: Anticancer human tumor ASPS-1 cell line growth inhibition;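 also: spheroids exposed to agents for 7 days after 3 days of growth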;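 as to viability, T/C: 100% = DMSO vehicle treated spheroids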
Conditions: for IC50: curve of first compound; for viability, T/C: stronger effect = lower value
Source text: Multicellular complex tumor spheroid response to DNA repair inhibitors in combination with DNA-damaging drugs
This study explores the anticancer activities of DNA-damaging drugs and inhibitors of DNA damage repair, both as single agents and in combinations. Complex tumor spheroids comprised of malignant cells, endothelial cells and mesenchymal stem cells served as an in vitro model for human solid tumors. This model system incorporates physiologically relevant features and patient-derived or established malignant cell lines with clinically relevant genetic alterations from many tumor types. Twenty-six patient-derived or established malignant cell lines were evaluated representing sarcoma, melanoma, small cell lung cancer (SCLC), non-small cell lung cancer (NSCLC), as well as bladder, ovarian and pancreatic cancers. The concentration ranges selected for each drug and investigational agent were based upon clinically achievable concentrations if the clinical Cmax of the agent was known.
Compounds. The drugs and compounds olaparib (NSC753686), talazoparib (NSC767125), berzosertib (NSC777718), elimusertib (NSC800525), nedisertib (NSC802822), VX-984 (NSC792969), AZD-1390 (NSC803789), temozolomide (NSC362856), topotecan (NSC609699), trabectedin (NSC813783), staurosporine (NSC755774), and gemcitabine (NSC613327) were obtained from the National Cancer Institute (NCI) Developmental Therapeutics Program Chemical Repository. The FDA-approved anticancer drug set is available from the Developmental Therapeutics Program at https://dtp.cancer.gov/organization/dscb/obtaining/available_plates.htm. […] The stock solutions were prepared in dimethyl sulfoxide (DMSO, Sigma-Aldrich, St. Louis, MO, cat. D2650) at 400-fold the tested concentration and stored at -70 degrees C. Prior to their use, the stock solutions were diluted in fresh medium and the final DMSO concentration in the assay was 0.25% (v/v). All drugs and investigational agents were tested over a range starting from a high concentration at or near the clinical Cmax and decreasing in half-log increments. If the clinical Cmax for an agent had not been determined, the highest concentration tested was 10 microM.
Cell Lines. The patient-derived cancer cell (PDC) lines: 156681-154-R-J1-PDC, 283228-195-R-J1-PDC, 287954-098-R-J1-PDC, 292921-168-R-J2-PDC, 349418-098-R-PDC, 425362-245-T-J1-PDC, 556581-035-R-J1-PDC, and BL0293-F563-PDC were received from the NCI Patient-Derived Models Repository (PDMR, https://pdmr.cancer.gov). The established cell lines HS-SY-2 (RRID:CVCL_8719), MPNST, and SYO-1 (RRID:CVCL_7146) were obtained from the Sloan Kettering Institute. The alveolar soft parts sarcoma cell line ASPS-1 (RRID:CVCL_S738) was established at the NCI and grown from internal seed stocks. The following established cell lines were purchased from the American Type Culture Collection (ATCC, Manassas, VA): G-401 (ATCC, cat. CRL-1441, RRID:CVCL_0270), SW982 (ATCC, cat. HTB-93, RRID:CVCL_1734), VA-ES-BJ (ATCC, cat. CRL-2138, RRID:CVCL_1785), NCI-H719 (ATCC, cat. CRL-5837, RRID:CVCL_1582), NCI-H196 (ATCC, cat. CRL-5823, RRID:CVCL_1509), NCI-H841 (ATCC, cat. CRL-5845, RRID:CVCL_1595), NCI-H1618 (ATCC, cat. CRL-5879, RRID:CVCL_1480), NCI-H1876 (ATCC, cat. CRL-5902, RRID:CVCL_1503), DMS 114 (ATCC, cat. CRL-2066; RRID:CVCL_1174), NCI-H211 (ATCC, cat. CRL-5824; RRID:CVCL_1529), and SW 1271 (ATCC, cat. CRL-2177, RRID:CVCL_1716). The small cell lung cancer cell line COR-L88 was purchased from Sigma-Aldrich (cat. 92031917-1VL, RRID:CVCL_1141). The non-small cell lung cancer cell lines NCI-H226 (RRID:CVCL_1544) and NCI-H322M (RRID:CVCL_1557) were established at the NCI and grown from internal seed stocks. Pooled donor human umbilical vein endothelial cells (HUVEC, Lonza, cat. CC-2519) and human mesenchymal stem cells (hMSC, Lonza, cat. PT-2501) were purchased from Lonza (Walkersville, MD).
Cell Culture. All cells were maintained in an incubator at 37 degrees C and 5% CO2 with 95% humidity. […]

[1] = second compound 0.003 µM, first compound 0.0316 µM
[2] = second compound 0.003 µM, first compound 0.1 µM
[3] = second compound 0.003 µM, first compound 0.316 µM
[4] = second compound 0.003 µM, first compound 1 µM
[5] = second compound 0.003 µM, first compound 3.16 µM
[6] = second compound 0.003 µM, first compound 10 µM
[7] = second compound 0.00949 µM, first compound 0.0316 µM
[8] = second compound 0.00949 µM, first compound 0.1 µM
[9] = second compound 0.00949 µM, first compound 0.316 µM
[10] = second compound 0.00949 µM, first compound 1 µM
[11] = second compound 0.00949 µM, first compound 3.16 µM
[12] = second compound 0.00949 µM, first compound 10 µM
[13] = second compound 0.03 µM, first compound 0.0316 µM
[14] = second compound 0.03 µM, first compound 0.1 µM
[15] = second compound 0.03 µM, first compound 0.316 µM
[16] = second compound 0.03 µM, first compound 1 µM
[17] = second compound 0.03 µM, first compound 3.16 µM
[18] = second compound 0.03 µM, first compound 10 µM
[19] = second compound 0.0949 µM, first compound 0.0316 µM
[20] = second compound 0.0949 µM, first compound 0.1 µM
[21] = second compound 0.0949 µM, first compound 0.316 µM
[22] = second compound 0.0949 µM, first compound 1 µM
[23] = second compound 0.0949 µM, first compound 3.16 µM
[24] = second compound 0.0949 µM, first compound 10 µM
[25] = second compound 0.3 µM, first compound 0.0316 µM
[26] = second compound 0.3 µM, first compound 0.1 µM
[27] = second compound 0.3 µM, first compound 0.316 µM
[28] = second compound 0.3 µM, first compound 1 µM
[29] = second compound 0.3 µM, first compound 3.16 µM
[30] = second compound 0.3 µM, first compound 10 µM

CC1COCCN1c1cc(-c2ccnn2C)c2ccnc(-c3ccn[nH]3)c2n1 (stereo not given) + CC[C@@]1(O)C(=O)OCc2c1cc1n(c2=O)Cc2cc3c(CN(C)C)c(O)ccc3nc2-1
IC50 (second compound 0.003 µM): 0.224 µM
IC50 (second compound 0.00949 µM): 0.0608 µM
IC50 (second compound 0.03 µM): < 0.0316 µM
IC50 (second compound 0.0949 µM): < 0.0316 µM
IC50 (second compound 0.3 µM): < 0.0316 µM
viability, T/C [1]: 73.9%
viability, T/C [2]: 59.1%
viability, T/C [3]: 46.2%
viability, T/C [4]: 44.5%
viability, T/C [5]: 47.8%
viability, T/C [6]: 43.5%
viability, T/C [7]: 56.9%
viability, T/C [8]: 48.7%
viability, T/C [9]: 39.9%
viability, T/C [10]: 40.1%
viability, T/C [11]: 46.8%
viability, T/C [12]: 42.3%
viability, T/C [13]: 38.7%
viability, T/C [14]: 35.1%
viability, T/C [15]: 35.8%
viability, T/C [16]: 39.6%
viability, T/C [17]: 42.1%
viability, T/C [18]: 42.5%
viability, T/C [19]: 26.7%
viability, T/C [20]: 26.5%
viability, T/C [21]: 28.7%
viability, T/C [22]: 34.1%
viability, T/C [23]: 41.9%
viability, T/C [24]: 36.4%
viability, T/C [25]: 23.3%
viability, T/C [26]: 23.2%
viability, T/C [27]: 23.5%
viability, T/C [28]: 33.8%
viability, T/C [29]: 44.6%
viability, T/C [30]: 38.6%

COc1cc(C)[nH]c(=O)c1CN1CCc2c(Cl)cc(C(OC)C3COC3)c(Cl)c2C1=O (stereo not given) + CC[C@@]1(O)C(=O)OCc2c1cc1n(c2=O)Cc2cc3c(CN(C)C)c(O)ccc3nc2-1
IC50 (second compound 0.003 µM): > 10 µM
IC50 (second compound 0.00949 µM): > 10 µM
IC50 (second compound 0.03 µM): > 10 µM
IC50 (second compound 0.0949 µM): > 10 µM
IC50 (second compound 0.3 µM): > 10 µM
viability, T/C [1]: 107%
viability, T/C [2]: 111%
viability, T/C [3]: 99.3%
viability, T/C [4]: 98.7%
viability, T/C [5]: 99.9%
viability, T/C [6]: 101%
viability, T/C [7]: 112%
viability, T/C [8]: 110%
viability, T/C [9]: 107%
viability, T/C [10]: 98.9%
viability, T/C [11]: 98.9%
viability, T/C [12]: 98.8%
viability, T/C [13]: 84.6%
viability, T/C [14]: 89.1%
viability, T/C [15]: 88.8%
viability, T/C [16]: 87.2%
viability, T/C [17]: 91.3%
viability, T/C [18]: 82.8%
viability, T/C [19]: 61.8%
viability, T/C [20]: 61.7%
viability, T/C [21]: 60.2%
viability, T/C [22]: 62.7%
viability, T/C [23]: 58.4%
viability, T/C [24]: 59.3%
viability, T/C [25]: 69.7%
viability, T/C [26]: 64.8%
viability, T/C [27]: 69.2%
viability, T/C [28]: 64.9%
viability, T/C [29]: 64.2%
viability, T/C [30]: 65.7%

Cc1cc(C)c(CNC(=O)c2cc(-c3ccc(CN4CCOCC4)cc3)cc3c2cnn3C2CCCC2)c(=O)[nH]1 + CC[C@@]1(O)C(=O)OCc2c1cc1n(c2=O)Cc2cc3c(CN(C)C)c(O)ccc3nc2-1
IC50 (second compound 0.003 µM): > 10 µM
IC50 (second compound 0.00949 µM): > 10 µM
IC50 (second compound 0.03 µM): > 10 µM
IC50 (second compound 0.0949 µM): 0.777 µM
IC50 (second compound 0.3 µM): < 0.0316 µM
viability, T/C [1]: 100%
viability, T/C [2]: 106%
viability, T/C [3]: 94.2%
viability, T/C [4]: 93.7%
viability, T/C [5]: 85.2%
viability, T/C [6]: 81.2%
viability, T/C [7]: 107%
viability, T/C [8]: 114%
viability, T/C [9]: 107%
viability, T/C [10]: 95.2%
viability, T/C [11]: 87.2%
viability, T/C [12]: 77.8%
viability, T/C [13]: 95.8%
viability, T/C [14]: 98.7%
viability, T/C [15]: 89.9%
viability, T/C [16]: 79.9%
viability, T/C [17]: 66%
viability, T/C [18]: 74%
viability, T/C [19]: 59%
viability, T/C [20]: 55.3%
viability, T/C [21]: 52.3%
viability, T/C [22]: 46.2%
viability, T/C [23]: 46.5%
viability, T/C [24]: 52.8%
viability, T/C [25]: 49.5%
viability, T/C [26]: 47%
viability, T/C [27]: 44.4%
viability, T/C [28]: 45.6%
viability, T/C [29]: 46.4%
viability, T/C [30]: 56.9%

[2H]c1nc(C)nc([2H])c1-c1cc(NC[C@@H](C)c2cccc3c(C(=O)NC)ccnc23)ncn1 + CC[C@@]1(O)C(=O)OCc2c1cc1n(c2=O)Cc2cc3c(CN(C)C)c(O)ccc3nc2-1
IC50 (second compound 0.003 µM): > 10 µM
IC50 (second compound 0.00949 µM): > 10 µM
IC50 (second compound 0.03 µM): > 10 µM
IC50 (second compound 0.0949 µM): > 10 µM
IC50 (second compound 0.3 µM): > 10 µM
viability, T/C [1]: 111%
viability, T/C [2]: 113%
viability, T/C [3]: 110%
viability, T/C [4]: 107%
viability, T/C [5]: 107%
viability, T/C [6]: 104%
viability, T/C [7]: 112%
viability, T/C [8]: 106%
viability, T/C [9]: 107%
viability, T/C [10]: 108%
viability, T/C [11]: 97.8%
viability, T/C [12]: 100%
viability, T/C [13]: 103%
viability, T/C [14]: 101%
viability, T/C [15]: 97.8%
viability, T/C [16]: 91.3%
viability, T/C [17]: 94.6%
viability, T/C [18]: 97.4%
viability, T/C [19]: 67.8%
viability, T/C [20]: 75.8%
viability, T/C [21]: 67.8%
viability, T/C [22]: 66.2%
viability, T/C [23]: 68%
viability, T/C [24]: 68.4%
viability, T/C [25]: 80.2%
viability, T/C [26]: 72.8%
viability, T/C [27]: 77.1%
viability, T/C [28]: 71.4%
viability, T/C [29]: 74.8%
viability, T/C [30]: 66.6%
